Series [1] has as its system chloroquine-resistant W2 strain of Plasmodium falciparum. The series can be described thus: Antiplasmodial activity, growth inhibition by flow cytometry. Type of series: cell-based. On the procedure:
The compounds were added from DMSO stocks; the maximum concentration of DMSO used was 0.1%. Controls without inhibitors included 0.1% DMSO. […] Fixed parasites were then transferred to 0.1% Triton X-100 in phosphate-buffered saline containing 1 nM YOYO-1 dye (Molecular Probes, MA, USA). Parasitemia was determined from dot plots (forward scatter vs fluorescence) acquired on a FACSort flow cytometer using Cell Quest software (Beckton Dickinson, NJ, USA). IC50 values for growth inhibition were determined from plots of percent control parasitemia over inhibitor concentration using the Prism 5.0 program (GraphPad Software, CA, USA), with data from duplicate experiments fitted by nonlinear regression.
The synthesized C4/C5substituted-isoindoline-1,3-diones-4-aminoquinolines were screened for their antiplasmodial activity against CQR (W2) strain of P. falciparum (Table 1).
On the technique in general: Flow cytometry measures light scatter and fluorescence of single cells or particles in a stream.

Series [2] deals with Vero cells. The series is described as follows: Cytotoxicity assay (resazurin cell viability). Type of series: cell-based. Conditions: for SI (selectivity index): Vero cytotoxicity vs W2 antiplasmodial IC50. On the procedure: (§1) Cell viability was determined using Vero cells (ATCC, Sigma, Munich, Germany), which were grown in RPMI medium (Gibco) supplemented with 10% decomplemented fetal calf serum under 5% CO2 atmosphere.
Background: Resazurin is reduced to fluorescent resorufin, in cell work by metabolically active cells.

Series [3] is described as follows: Cytotoxicity assay (resazurin cell viability). Type of series: cell-based. The conditions noted are these: African green monkey; mammalian Vero cells, 24 h incubation, resazurin. On the procedure: as §1
Series [4] is described as follows: Heme-binding spectrophotometric titration (HypSpec). The conditions noted are these: 40% aq. DMSO, heme 12 μM.
Description: The resultant 40% DMSO solutions maintain the hematin solutions in the monomeric state at concentrations used. […] All the working solutions were kept in dark to avoid photo-sensitivity. Diluent solutions were prepared by dissolving 1 mL of 0.02 M HEPES and 4 mL of spectroscopic grade DMSO and made up to a final volume of 10 mL with ultrapure, HPLC grade Hipersolv water.
Setting [5] is: chloroquine-resistant W2 strain, 48 h incubation, read-out: IC50.
The mark [6] stands for this setting: Plasmodium falciparum, W2, 48 h, chloroquine-resistant W2 strain, 48 h incubation, read-out: IC50.
[7] abbreviates: mammalian Vero cells, 24 h incubation, resazurin, read-out: IC50 (μM cytotoxicity).
Setting [8] is: Plasmodium falciparum, W2, chloroquine-resistant W2 strain, Figure 1, read-out: IC50.

Where two headings read alike, the source gives them in different places.

As a reminder, the IC50 is the concentration that inhibits the measured activity by half. As to `O=C1c2cccc(N3CCCCC3)c2C(=O)N1CCNc1ccnc2cc(Cl)ccc12` [4a], the results for the IC50 in series [1] (setting [5]) and in series [2] were 0.158 µM and under 28.8 µM, respectively.

`O=C1c2cccc(N3CCCCC3)c2C(=O)N1CCCNc1ccnc2cc(Cl)ccc12` [4b]: the IC50 turned out to be 0.162 µM in series [1] (setting [6]) and 55.8 µM in series [2] (setting [7]). For the same molecule, the “SI (selectivity index)” value in series [2] came to 344.4.

Turning to `O=C1c2cccc(N3CCCCC3)c2C(=O)N1CCCCNc1ccnc2cc(Cl)ccc12` [4c, 2-(4-((7-chloroquinolin-4-yl)amino)butyl)-4-(piperidin-1-yl)isoindoline-1,3-dione], the values for the IC50 in series [1] (setting [6]), in series [1] (setting [5]) and in series [2] (setting [7]) were 0.05 µM, 0.051 µM and 54.1 µM, respectively. For the same molecule, the “SI (selectivity index)” value in series [2] is given as 1060.7.

For `O=C1c2cccc(N3CCCCC3)c2C(=O)N1CCCCCCNc1ccnc2cc(Cl)ccc12` [4d, 2-(6-((7-chloroquinolin-4-yl)amino)hexyl)-4-(piperidin-1-yl)isoindoline-1,3-dione], the IC50 in series [1] (setting [6]) came to 0.075 µM; in series [2] (setting [7]), 204 µM. Further, in series [2], the “SI (selectivity index)” value was determined as 2720.

In the case of `O=C1c2ccc(N3CCCCC3)cc2C(=O)N1CCNc1ccnc2cc(Cl)ccc12` [4e], the IC50 in series [1] (setting [5]) is 0.163 µM; in series [2], under 28.8 µM.

With `O=C1c2ccc(N3CCCCC3)cc2C(=O)N1CCCNc1ccnc2cc(Cl)ccc12` [4f, 2-(3-((7-chloroquinolin-4-yl)amino)propyl)-5-(piperidin-1-yl)isoindoline-1,3-dione], the IC50 in series [1] (setting [6]) was 0.176 µM; in series [2] (setting [7]) it was 55.8 µM. The “SI (selectivity index)” value in series [2] is given as 317.

With `O=C1c2ccc(N3CCCCC3)cc2C(=O)N1CCCCNc1ccnc2cc(Cl)ccc12` [4g], in series [1] (setting [6]), the IC50 was determined as 0.077 µM. In series [3], the half-maximal inhibitory concentration (IC50) at 24 h was under 27 µM.

For the molecule `O=C1c2ccc(N3CCCCC3)cc2C(=O)N1CCCCCCNc1ccnc2cc(Cl)ccc12` [4h], the IC50 in series [1] (setting [5]) was 0.123 µM; in series [2] it was under 25.5 µM.

As for `O=C1c2cccc(N3CCOCC3)c2C(=O)N1CCNc1ccnc2cc(Cl)ccc12` [4i], the IC50 in series [1] (setting [6]) stood at 0.18 µM. The IC50 at 24 h in series [3] was under 28.6 µM.

On to `O=C1c2cccc(N3CCOCC3)c2C(=O)N1CCCNc1ccnc2cc(Cl)ccc12` [4j], for which the IC50 in series [1] (setting [6]) was 0.276 µM; in series [2] (setting [7]), 222 µM. The “SI (selectivity index)” value in series [2] worked out at 805.

In the case of `O=C1c2cccc(N3CCOCC3)c2C(=O)N1CCCCNc1ccnc2cc(Cl)ccc12` [4k, 2-(4-((7-chloroquinolin-4-yl)amino)butyl)-4-morpholinoisoindoline-1,3-dione], the IC50 came out at 0.071 µM in series [1] (setting [6]) and 108 µM in series [2] (setting [7]). The “SI (selectivity index)” value in series [2] turned out to be 1517.

Consider `O=C1c2cccc(N3CCOCC3)c2C(=O)N1CCCCCCNc1ccnc2cc(Cl)ccc12` [4l], for which the IC50 stood at 0.025 µM in series [1] (setting [6]) and 50.8 µM in series [2] (setting [7]).

As for `O=C1c2ccc(N3CCOCC3)cc2C(=O)N1CCNc1ccnc2cc(Cl)ccc12` [4m, 2-(2-((7-chloroquinolin-4-yl)amino)ethyl)-5-morpholinoisoindoline-1,3-dione], in series [1] (setting [6]), the IC50 stood at 0.37 µM. Moreover, the IC50 at 24 h in series [3] is under 28.6 µM.

For `O=C1c2ccc(N3CCOCC3)cc2C(=O)N1CCCNc1ccnc2cc(Cl)ccc12` [4n], the IC50 stood at 0.118 µM in series [1] (setting [6]) and 222 µM in series [2] (setting [7]). For the same molecule, the “SI (selectivity index)” value in series [2] was determined as 1883.

Turning to `O=C1c2ccc(N3CCOCC3)cc2C(=O)N1CCCCNc1ccnc2cc(Cl)ccc12` [4o, 2-(4-((7-chloroquinolin-4-yl)amino)butyl)-5-morpholinoisoindoline-1,3-dione], the IC50 in series [1] (setting [6]) is 0.049 µM. This molecule also showed an IC50 at 24 h in series [3] of under 26.9 µM.

`O=C1c2ccc(N3CCOCC3)cc2C(=O)N1CCCCCCNc1ccnc2cc(Cl)ccc12` [4p]: the IC50 in series [1] (setting [6]) came out at 0.019 µM. The IC50 at 24 h in series [3] is under 25.4 µM.

As to `O=C1c2ccc(N3CCN(CCO)CC3)cc2C(=O)N1CCNc1ccnc2cc(Cl)ccc12` [4q], the IC50 in series [1] (setting [6]) was found to be 0.044 µM. In series [3], this molecule gave an IC50 at 24 h of under 26 µM.

Consider `O=C1c2ccc(N3CCN(CCO)CC3)cc2C(=O)N1CCCNc1ccnc2cc(Cl)ccc12` [4r, 2-(3-((7-chloroquinolin-4-yl)amino)propyl)-5-(4-(2-hydroxyethyl)piperazin-1-yl)isoindoline-1,3-dione], for which the “Monomeric Heme log K” value in series [4] (pH 5.6 (MES buffer)) worked out at 5.41; in series [4] (pH 7.4 (HEPES buffer)), 5.14. Further, the values for the IC50 in series [1] (setting [8]) and in series [1] (setting [5]) were 0.0066 µM and 0.006 µM, respectively. The “activity relative to CQ (fold higher)” value in series [1] (antiplasmodial activity vs CQ) is listed as about 12 fold. Also, in series [3], the IC50 at 24 h is under 25.3 µM.

Take `O=C1c2ccc(N3CCN(CCO)CC3)cc2C(=O)N1CCCCNc1ccnc2cc(Cl)ccc12` [4s, 2-(4-((7-chloroquinolin-4-yl)amino)butyl)-5-(4-(2-hydroxyethyl)piperazin-1-yl)isoindoline-1,3-dione]: in series [1] (setting [6]), the IC50 was 0.014 µM. The molecule further gave an IC50 at 24 h in series [3] of under 24.6 µM.

With `O=C1c2ccc(N3CCN(CCO)CC3)cc2C(=O)N1CCCCCCNc1ccnc2cc(Cl)ccc12` [4t], the IC50 in series [1] (setting [6]) worked out at 0.015 µM. The molecule further came in with an IC50 at 24 h in series [3] of under 23.3 µM.

Take `C[C@@H]1CC[C@H]2[C@@H](C)C(=O)O[C@@H]3O[C@@]4(C)CC[C@@H]1[C@]32OO4` [ART, Artemisinin, reference compound]: the IC50 was found to be 0.005 µM in series [1] (setting [6]) and 0.0053 µM in series [1] (setting [8]).

`CCN(CC)CCCC(C)Nc1ccnc2cc(Cl)ccc12` (stereo not shown) [CQ, Chloroquine, reference compound] gave an IC50 in series [1] (Plasmodium falciparum, W2, 48 h) of 0.079 µM.

For the origin of these results see article PMC7099627, “Design, synthesis, heme binding and density functional theory studies of isoindoline-dione-4-aminoquinolines as potential antiplasmodials” (Future Medicinal Chemistry, 2019).
